Columns and labels:
[1] = Inhibition of PKA
[2] = biological target: Epidermal growth factor receptor (Homo sapiens, UniProt P00533); experiment: Inhibition of EGFR
[3] = biological target: Cyclin-dependent kinase 2 (Homo sapiens, UniProt P24941); experiment: Binding affinity to CDK2
[4] = Inhibition of PKC

Sequence of Epidermal growth factor receptor (P00533 whole entry): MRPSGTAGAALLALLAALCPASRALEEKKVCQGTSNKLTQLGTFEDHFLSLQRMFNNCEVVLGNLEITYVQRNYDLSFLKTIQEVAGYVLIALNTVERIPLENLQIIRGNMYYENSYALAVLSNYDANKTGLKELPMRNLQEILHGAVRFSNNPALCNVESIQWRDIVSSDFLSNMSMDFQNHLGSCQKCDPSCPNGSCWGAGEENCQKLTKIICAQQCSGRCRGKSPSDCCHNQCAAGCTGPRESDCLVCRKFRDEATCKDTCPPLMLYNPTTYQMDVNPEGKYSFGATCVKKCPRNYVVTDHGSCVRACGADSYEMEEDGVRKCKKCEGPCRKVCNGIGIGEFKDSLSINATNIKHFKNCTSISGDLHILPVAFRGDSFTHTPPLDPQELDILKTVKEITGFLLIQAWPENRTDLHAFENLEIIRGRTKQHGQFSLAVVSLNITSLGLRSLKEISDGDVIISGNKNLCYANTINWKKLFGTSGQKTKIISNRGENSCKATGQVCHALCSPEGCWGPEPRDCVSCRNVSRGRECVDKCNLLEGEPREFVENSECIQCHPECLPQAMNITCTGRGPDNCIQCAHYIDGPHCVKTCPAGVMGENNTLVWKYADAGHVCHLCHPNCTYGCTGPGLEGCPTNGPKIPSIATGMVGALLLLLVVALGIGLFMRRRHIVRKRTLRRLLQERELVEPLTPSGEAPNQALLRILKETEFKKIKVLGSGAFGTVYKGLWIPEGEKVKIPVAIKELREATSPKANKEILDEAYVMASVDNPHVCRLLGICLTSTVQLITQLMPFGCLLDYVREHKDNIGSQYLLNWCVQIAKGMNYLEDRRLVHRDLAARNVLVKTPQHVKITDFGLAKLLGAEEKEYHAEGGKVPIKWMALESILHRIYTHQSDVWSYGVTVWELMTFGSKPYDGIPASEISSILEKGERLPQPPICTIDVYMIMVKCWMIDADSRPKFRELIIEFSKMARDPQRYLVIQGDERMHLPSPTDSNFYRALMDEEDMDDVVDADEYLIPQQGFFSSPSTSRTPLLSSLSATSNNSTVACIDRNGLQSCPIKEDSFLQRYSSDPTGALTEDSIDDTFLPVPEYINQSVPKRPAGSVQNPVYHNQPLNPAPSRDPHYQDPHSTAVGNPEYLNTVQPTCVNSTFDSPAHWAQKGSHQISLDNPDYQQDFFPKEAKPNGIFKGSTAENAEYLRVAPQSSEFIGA

O=C(/C=C/c1ccc(O)c(O)c1)c1ccc(O)cc1O [BUTEIN]
IC50 [1]: > 500 µM
IC50 [2]: 16 µM
Kd [3]: 100 µM
IC50 [4]: > 500 µM
